Measurements published in patent US8586538B2, “Method of treating a patient suffering from a bleeding disorder comprising administering an antibody against the A3-C1 of FVIII” (Stichting Sanquin Bloedvoorziening, priority 2002, dated 2013).

Tested on: LRP cluster II
Test: SPR binding of LRP cluster II to immobilized light chains (FVIII, FVa, FVIII/FV chimera)
Conditions: LRP cluster II 100 nM; immobilized light chain
Protocol: FIG. 3. Binding of LRP cluster II to immobilized FVa light chain. […] Response is indicated as Resonance Units (RU) and is corrected for nonspecific binding, which was less than 5% relative to coated channels.
FIG. 6. Binding of LRP cluster II to the FVIII/FV^1811-1818 light chain chimera. ScFv EL14 at a CM5 sensor chip (67 fmol/mm^2) was incubated with either the recombinant wild-type FVIII light chain or the recombinant FVIII/FV^1811-1818 chimera till a density of 20 fmol/mm^2, in 150 mM NaCl, 50 mM Tris (pH 7.4). […] Bound LRP cluster II is expressed as the amount associated after 2 min.
The kinetics of protein interactions was determined by surface plasmon resonance (SPR) analysis, employing a BIAcore™2000 biosensor system (Biacore AS, Uppsala, Sweden). […] Association of analyte was assessed in 150 mM NaCl, 2 mM CaCl2, 0.005% (v/v) Tween® 20, and 20 mM Hepes (pH 7.4) for 2 min, at a flow rate of 20 μl/min at 25° C. […] The association (kon) and dissociation (koff) rate constants were determined by using the BIAevaluation software 3.1 (Biacore AB, Uppsala, Sweden). […] Equilibrium dissociation constants (kd) were calculated from the ratio koff/kon. […]

Chain of LRP cluster II (Q07954 803-1182 limits assumed): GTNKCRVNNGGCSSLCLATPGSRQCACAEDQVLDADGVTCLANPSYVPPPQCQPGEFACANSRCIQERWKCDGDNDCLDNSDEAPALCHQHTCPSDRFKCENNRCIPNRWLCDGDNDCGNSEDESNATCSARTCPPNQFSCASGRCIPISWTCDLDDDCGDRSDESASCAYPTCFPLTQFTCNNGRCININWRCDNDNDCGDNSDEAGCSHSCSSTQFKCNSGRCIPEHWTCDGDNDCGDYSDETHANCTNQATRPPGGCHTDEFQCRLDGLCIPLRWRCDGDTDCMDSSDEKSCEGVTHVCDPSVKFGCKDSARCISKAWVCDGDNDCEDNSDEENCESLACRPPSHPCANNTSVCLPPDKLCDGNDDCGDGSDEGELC

Binding to LRP cluster II: did not interact
Substance: FVa light chain: light chain of thrombin-activated human Factor V purified from plasma
